What all share (assay): Kinase panel profiling at 1 µmol/L (MSA or IMAP), percentage inhibition
Common to all, as to format: biochemical

Assay [1] deals with T1, panel of 255 wild-type kinases (Homo sapiens, UniProt Q96L34).
T1 sequence (Q96L34 1-752): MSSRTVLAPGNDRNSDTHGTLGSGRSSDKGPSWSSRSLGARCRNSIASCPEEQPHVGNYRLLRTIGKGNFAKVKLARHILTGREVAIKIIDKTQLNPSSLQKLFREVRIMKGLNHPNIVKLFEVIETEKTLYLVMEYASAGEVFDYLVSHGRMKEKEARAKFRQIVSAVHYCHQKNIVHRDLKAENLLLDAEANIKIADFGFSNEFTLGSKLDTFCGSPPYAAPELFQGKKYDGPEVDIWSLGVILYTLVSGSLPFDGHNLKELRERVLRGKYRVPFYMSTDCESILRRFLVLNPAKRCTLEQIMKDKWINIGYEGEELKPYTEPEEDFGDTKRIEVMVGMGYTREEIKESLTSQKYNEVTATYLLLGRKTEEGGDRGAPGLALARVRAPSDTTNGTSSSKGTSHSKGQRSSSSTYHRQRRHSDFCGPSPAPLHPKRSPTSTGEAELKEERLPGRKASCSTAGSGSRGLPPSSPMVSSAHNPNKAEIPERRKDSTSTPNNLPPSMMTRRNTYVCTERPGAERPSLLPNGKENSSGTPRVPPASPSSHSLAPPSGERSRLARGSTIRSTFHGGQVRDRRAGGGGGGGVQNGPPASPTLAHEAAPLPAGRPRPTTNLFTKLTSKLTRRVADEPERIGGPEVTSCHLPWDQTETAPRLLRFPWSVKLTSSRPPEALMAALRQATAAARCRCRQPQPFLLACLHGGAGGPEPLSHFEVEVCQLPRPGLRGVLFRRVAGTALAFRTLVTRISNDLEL
The following applies: read-out: %-inhibition, MARK4.

For assay [2], the target named is panel of 255 wild-type kinases (Homo sapiens, UniProt Q16512). The following applies: read-out: %-inhibition at 1 µmol/L, PKN1.
The target of assay [3] is panel of 255 wild-type kinases (Homo sapiens, UniProt Q14680). The following applies: read-out: %-inhibition, MELK.
The target of assay [4] is T2, panel of 255 wild-type kinases (Homo sapiens, UniProt P51955).
T2 sequence (P51955 1-445): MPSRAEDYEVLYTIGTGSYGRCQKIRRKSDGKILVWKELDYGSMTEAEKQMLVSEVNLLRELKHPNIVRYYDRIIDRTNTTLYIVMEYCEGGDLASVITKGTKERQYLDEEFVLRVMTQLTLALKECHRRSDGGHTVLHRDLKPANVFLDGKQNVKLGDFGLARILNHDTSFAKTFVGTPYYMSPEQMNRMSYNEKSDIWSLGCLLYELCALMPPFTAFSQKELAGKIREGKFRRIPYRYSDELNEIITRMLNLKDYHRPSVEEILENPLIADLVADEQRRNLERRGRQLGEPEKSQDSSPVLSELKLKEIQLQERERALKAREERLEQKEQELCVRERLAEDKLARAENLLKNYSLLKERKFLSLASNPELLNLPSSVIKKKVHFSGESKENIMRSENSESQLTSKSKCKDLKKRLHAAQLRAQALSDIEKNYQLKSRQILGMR
The following applies: read-out: %-inhibition, NEK2.

Assay [5] concerns the target panel of 255 wild-type kinases (Homo sapiens, UniProt Q00526). The following applies: read-out: %-inhibition CDK3/CycE1.
Assay [6] has as its target panel of 255 wild-type kinases (Homo sapiens, UniProt P31751). The following applies: read-out: %-inhibition AKT2.
In assay [7] the target is T3, panel of 255 wild-type kinases (Homo sapiens, UniProt P29320).
T3 sequence (P29320 21-983): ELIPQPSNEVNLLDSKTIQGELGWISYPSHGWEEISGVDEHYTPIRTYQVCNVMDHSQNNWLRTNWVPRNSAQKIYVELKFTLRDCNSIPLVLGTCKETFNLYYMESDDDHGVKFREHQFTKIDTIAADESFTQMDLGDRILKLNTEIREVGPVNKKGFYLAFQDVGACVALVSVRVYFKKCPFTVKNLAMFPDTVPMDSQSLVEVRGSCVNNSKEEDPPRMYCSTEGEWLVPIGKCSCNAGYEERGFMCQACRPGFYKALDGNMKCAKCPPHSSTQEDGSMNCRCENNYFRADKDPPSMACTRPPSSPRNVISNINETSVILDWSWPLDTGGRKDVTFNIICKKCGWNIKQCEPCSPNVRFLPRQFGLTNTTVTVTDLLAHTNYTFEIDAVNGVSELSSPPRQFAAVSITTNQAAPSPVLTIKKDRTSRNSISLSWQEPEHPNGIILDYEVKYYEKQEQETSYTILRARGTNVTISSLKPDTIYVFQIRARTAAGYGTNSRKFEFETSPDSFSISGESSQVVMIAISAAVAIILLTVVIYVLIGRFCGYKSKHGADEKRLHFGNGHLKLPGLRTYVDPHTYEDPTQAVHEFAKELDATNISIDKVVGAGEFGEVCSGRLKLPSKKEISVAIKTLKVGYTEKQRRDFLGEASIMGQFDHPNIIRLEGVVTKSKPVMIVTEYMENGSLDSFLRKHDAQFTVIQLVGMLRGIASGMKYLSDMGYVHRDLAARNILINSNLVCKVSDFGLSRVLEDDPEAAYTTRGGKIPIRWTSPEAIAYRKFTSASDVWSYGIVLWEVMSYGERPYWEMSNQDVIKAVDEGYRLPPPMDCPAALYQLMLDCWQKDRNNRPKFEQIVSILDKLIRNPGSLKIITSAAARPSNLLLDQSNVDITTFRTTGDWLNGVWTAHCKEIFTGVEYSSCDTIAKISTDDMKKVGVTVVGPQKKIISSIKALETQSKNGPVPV
The following applies: read-out: %-inhibition at 1 µmol/L, EPHA3.

Where [8] appears, read: MARK4, 1 µmol/L single concentration.
Where [9] appears, read: kinase PKN1, 1 µmol/L single concentration.
Where [10] appears, read: MELK, 1 µmol/L single concentration.
[11] abbreviates: NEK2, 1 µmol/L single concentration.
The mark [12] stands for this setting: CDK3/CycE1 kinase assay, 1 µmol/L single concentration.
The mark [13] stands for this setting: AKT2 kinase assay, 1 µmol/L single concentration.
Where [14] appears, read: kinase EPHA3, 1 µmol/L single concentration.

Where two headings read alike, the source gives them in different places.

The values that follow come from PMC9516332 (Frontiers in Oncology, 2022).

As to `Cc1nc(NC(=O)N2CCC[C@H]2C(N)=O)sc1-c1ccnc(C(C)(C)C(F)(F)F)c1` [alpelisib], the inhibition at 1 µM in assay [1] (setting [8]) is 0.414%; in assay [2] (setting [9]), 8%; in assay [3] (setting [10]) it was 0.22%; in assay [4] (setting [11]) it was 7.4%; in assay [5] (setting [12]) it was -4%; in assay [6] (setting [13]), -0.795%. For the same compound, the inhibition at 1 µM in assay [7] (setting [14]) is -0.173%.

In the case of `Cn1cc(-c2cc3c(N4CCN(c5ncc([C@@](C)(N)c6ccc(F)cc6)cn5)CC4)ncnn3c2)cn1` [avapritinib], the inhibition at 1 µM in assay [1] (setting [8]) was -5.63%; in assay [2] (setting [9]) it was 19%; in assay [3] (setting [10]), 9%; in assay [4] (setting [11]) it was 9%; in assay [5] (setting [12]) it was -2.7%; in assay [6] (setting [13]) it was -0.192%. Further, the inhibition at 1 µM in assay [7] (setting [14]) was determined as 22%.

Turning to `Cn1cnc2c(F)c(Nc3ccc(Br)cc3F)c(C(=O)NOCCO)cc21` [binimetinib], the inhibition at 1 µM was -4% in assay [1] (setting [8]); 6% in assay [2] (setting [9]); -1.8% in assay [3] (setting [10]); 0.117% in assay [4] (setting [11]); -4.57% in assay [5] (setting [12]); 0.0508% in assay [6] (setting [13]). Besides, the inhibition at 1 µM in assay [7] (setting [14]) is 0.248%.

For `CNC(=O)c1ccc(-c2cnc3ncc(Cc4ccc5ncccc5c4)n3n2)cc1F` [capmatinib], the inhibition at 1 µM in assay [1] is 6%; in assay [2] it was 16%; in assay [3], -4%; in assay [4], 2.36%; in assay [5], -14%; in assay [6], 1.54%. Besides, the inhibition at 1 µM in assay [7] was -9%.

In the case of `COc1cc2ncnc(Nc3ccc(F)c(Cl)c3)c2cc1NC(=O)/C=C/CN1CCCCC1` [dacomitinib], the inhibition at 1 µM was 4.31% in assay [1] (setting [8]); 16% in assay [2] (setting [9]); 15% in assay [3] (setting [10]); -2.41% in assay [4] (setting [11]); -1.66% in assay [5] (setting [12]); -1.19% in assay [6] (setting [13]). Also, the inhibition at 1 µM in assay [7] (setting [14]) amounted to 11%.

For `C[C@H](Nc1ncnc2nc[nH]c12)c1cc2cccc(Cl)c2c(=O)n1-c1ccccc1` [duvelisib], the inhibition at 1 µM was 4.7% in assay [1] (setting [8]); 11% in assay [2] (setting [9]); 2.43% in assay [3] (setting [10]); 9% in assay [4] (setting [11]); -0.613% in assay [5] (setting [12]); -0.908% in assay [6] (setting [13]). Moreover, the inhibition at 1 µM in assay [7] (setting [14]) was determined as 0.475%.

On to `COC(=O)N[C@@H](C)CNc1nccc(-c2cn(C(C)C)nc2-c2cc(Cl)cc(NS(C)(=O)=O)c2F)n1` [encorafenib], for which the inhibition at 1 µM is 2.32% in assay [1] (setting [8]); 6% in assay [2] (setting [9]); 4.48% in assay [3] (setting [10]); 2.77% in assay [4] (setting [11]); -2% in assay [5] (setting [12]); 2% in assay [6] (setting [13]). Also, the inhibition at 1 µM in assay [7] (setting [14]) amounted to 4%.

On to `CN1CCN(c2ccc(C(=O)Nc3n[nH]c4ccc(Cc5cc(F)cc(F)c5)cc34)c(NC3CCOCC3)c2)CC1` [entrectinib], for which the inhibition at 1 µM in assay [1] (setting [8]) was 15%; in assay [2] (setting [9]) it was 64%; in assay [4] (setting [11]), 11%; in assay [5] (setting [12]) it was 5.63%; in assay [6] (setting [13]) it was -3.69%; in assay [7] (setting [14]), 30%.

On to `CCc1nc(C(N)=O)c(Nc2ccc(N3CCC(N4CCN(C)CC4)CC3)c(OC)c2)nc1NC1CCOCC1` [gilteritinib], for which the inhibition at 1 µM was 53% in assay [1] (setting [8]); 65% in assay [2] (setting [9]); 75% in assay [3] (setting [10]); 38% in assay [4] (setting [11]); 7% in assay [5] (setting [12]); -4.73% in assay [6] (setting [13]). In assay [7] (setting [14]), the inhibition at 1 µM was determined as 30%.

In the case of `CCN1CCN(c2ccc(Nc3cc(N(C)C(=O)Nc4c(Cl)c(OC)cc(OC)c4Cl)ncn3)cc2)CC1` [infigratinib], the inhibition at 1 µM in assay [1] (setting [8]) was -3%; in assay [2] (setting [9]), 13%; in assay [3] (setting [10]), -2%; in assay [4] (setting [11]), 27%; in assay [5] (setting [12]) it was -10%; in assay [6] (setting [13]) it was -0.769%. Also, the inhibition at 1 µM in assay [7] (setting [14]) is -0.311%.

As to `O=C(Nc1cnn2ccc(N3CCC[C@@H]3c3cc(F)ccc3F)nc12)N1CC[C@H](O)C1` [larotrectinib], the inhibition at 1 µM in assay [1] (setting [8]) was -6.42%; in assay [2] (setting [9]), 7%; in assay [3] (setting [10]), -1.52%; in assay [4] (setting [11]), -0.367%; in assay [5] (setting [12]), 1.79%; in assay [6] (setting [13]) it was -5.27%. The inhibition at 1 µM in assay [7] (setting [14]) is 0.702%.

As for `C[C@H]1Oc2cc(cnc2N)-c2c(nn(C)c2C#N)CN(C)C(=O)c2ccc(F)cc21` [lorlatinib], the inhibition at 1 µM is 18% in assay [1] (setting [8]); 4.68% in assay [2] (setting [9]); 4% in assay [3] (setting [10]); 10% in assay [4] (setting [11]); 3% in assay [5] (setting [12]); -2.31% in assay [6] (setting [13]). Also, the inhibition at 1 µM in assay [7] (setting [14]) came to 4.35%.

Consider `CCN1C(=O)N(c2c(F)c(OC)cc(OC)c2F)Cc2cnc3[nH]c(CN4CCOCC4)cc3c21` [pemigatinib], for which the inhibition at 1 µM in assay [1] (setting [8]) was 52%; in assay [2] (setting [9]) it was 10%; in assay [3] (setting [10]), 0.738%; in assay [4] (setting [11]), -2%; in assay [5] (setting [12]) it was 11%; in assay [6] (setting [13]) it was -2.2%. In addition, the inhibition at 1 µM in assay [7] (setting [14]) amounted to 0.534%.

Turning to `FC(F)(F)c1ccc(CNc2ccc(Cc3c[nH]c4ncc(Cl)cc34)cn2)cn1` [pexidartinib], the inhibition at 1 µM in assay [1] (setting [8]) is 17%; in assay [2] (setting [9]) it was -4.55%; in assay [3] (setting [10]), 3%; in assay [4] (setting [11]) it was -0.918%; in assay [5] (setting [12]), -1.23%; in assay [6] (setting [13]), -6%. In addition, in assay [7] (setting [14]), the inhibition at 1 µM was found to be 2.11%.
